Experimental data: patent US20090233871A1, “Complexed polypeptide and adjuvant for improved vaccines” (priority 2004, published 2009)

Assays:
[1] = tested on: CD8+ CTLs, T2 stimulators pulsed with polypeptide; type: in vivo, HLA-A2 transgenic mice; conditions: 100 μg CpG, equimolar CpG:peptide, s.c., day 10 (FIG. 8)
[2] = tested on: IFNγ-secreting CD8+ CTLs; experiment: primary IFNγ Elispot of CD8+ CTLs from mice primed with peptide plus CpG; conditions: 100 μg polypeptide + 100 μg CpG + 10 μg MPL-AF s.c., spleens day 10

Sequence	priming on addition of a KCSRNR amino acid sequence vs native polypeptide [1]	frequencies of IFNγ-secreting CTLs (priming efficiency) [2]
KTWGQYWQV	increased priming	
LTFNYRNL (Synthetically generated peptide) [H60]		most inefficient
